Assay results published in ChEMBL document CHEMBL4177628, “Discovery of a class of diheteroaromatic amines as orally bioavailable CDK1/4/6 inhibitors” (Bioorg Med Chem Lett, 2017).

Columns and labels:
COLO 205 [1] = experiment: Antiproliferative activity against human COLO205 cells after 96 hrs by CCK-8 assay; type: functional, cell-based; settings: COLO 205, 96 h
[2] = biological target: Cyclin-dependent kinase 1 (Homo sapiens, UniProt P06493); experiment: Inhibition of CDK1 (unknown origin) using U-light as substrate preincubated for 1 hr followed by EDTA addition measured after 1 hr by LANCE Ultra kinase assay
Chain of Cyclin-dependent kinase 1 (P06493 whole entry): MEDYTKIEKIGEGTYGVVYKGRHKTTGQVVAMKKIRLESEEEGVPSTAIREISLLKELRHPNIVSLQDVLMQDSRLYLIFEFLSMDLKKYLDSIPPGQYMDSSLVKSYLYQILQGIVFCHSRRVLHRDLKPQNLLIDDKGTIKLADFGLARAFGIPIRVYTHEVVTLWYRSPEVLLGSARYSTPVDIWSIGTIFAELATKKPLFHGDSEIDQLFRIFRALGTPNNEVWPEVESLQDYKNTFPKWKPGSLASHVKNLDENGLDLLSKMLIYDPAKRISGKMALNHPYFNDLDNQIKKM

[3] = biological target: Cyclin-dependent kinase 4 (Homo sapiens, UniProt P11802); experiment: Inhibition of CDK4 (unknown origin) using U-light as substrate preincubated for 1 hr followed by EDTA addition measured after 1 hr by LANCE Ultra kinase assay
Chain of Cyclin-dependent kinase 4 (P11802 whole entry): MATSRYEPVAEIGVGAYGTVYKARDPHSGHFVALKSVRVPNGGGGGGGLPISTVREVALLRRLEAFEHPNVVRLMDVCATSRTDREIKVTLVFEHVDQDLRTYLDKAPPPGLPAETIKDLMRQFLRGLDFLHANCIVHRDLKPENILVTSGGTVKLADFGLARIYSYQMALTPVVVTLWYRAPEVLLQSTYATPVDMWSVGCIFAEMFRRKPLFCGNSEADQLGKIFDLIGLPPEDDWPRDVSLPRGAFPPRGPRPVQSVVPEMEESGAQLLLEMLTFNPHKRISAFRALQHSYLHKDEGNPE

[4] = Clearance in ICR mouse at 1 mg/kg, iv; type: ADME, organism-based; settings: in vivo
[5] = Cmax in ICR mouse at 1 mg/kg, iv; type: ADME, organism-based; parameters: dose 1 mg/kg, route intravenous; settings: in vivo
[6] = AUC in ICR mouse at 1 mg/kg, iv; type: ADME, organism-based; settings: in vivo
[7] = Volume of distribution at steady state in ICR mouse at 1 mg/kg, iv; type: ADME, organism-based; settings: in vivo, read-out: Vdss
[8] = Oral bioavailability in ICR mouse at 5 mg/kg; type: ADME, organism-based; settings: in vivo
COLO 205 [9] = experiment: Antitumor activity against human COLO205 cells xenografted in nude BALB/c mouse assessed as tumor volume at 25 mg/kg, po administered once daily for 3 weeks measured twice per week relative to control relative to control; type: functional
COLO 205 [10] = experiment: Antitumor activity against human COLO205 cells xenografted in nude BALB/c mouse assessed as tumor volume at 100 mg/kg, po administered once daily for 3 weeks measured twice per week relative to control; type: functional
[11] = Half life in ICR mouse at 1 mg/kg, iv; type: ADME, organism-based; settings: in vivo
[12] = biological target: Cyclin-dependent kinase 6 (Homo sapiens, UniProt Q00534); experiment: Inhibition of CDK6 (unknown origin) using U-light as substrate preincubated for 1 hr followed by EDTA addition measured after 1 hr by LANCE Ultra kinase assay
Chain of Cyclin-dependent kinase 6 (Q00534 whole entry): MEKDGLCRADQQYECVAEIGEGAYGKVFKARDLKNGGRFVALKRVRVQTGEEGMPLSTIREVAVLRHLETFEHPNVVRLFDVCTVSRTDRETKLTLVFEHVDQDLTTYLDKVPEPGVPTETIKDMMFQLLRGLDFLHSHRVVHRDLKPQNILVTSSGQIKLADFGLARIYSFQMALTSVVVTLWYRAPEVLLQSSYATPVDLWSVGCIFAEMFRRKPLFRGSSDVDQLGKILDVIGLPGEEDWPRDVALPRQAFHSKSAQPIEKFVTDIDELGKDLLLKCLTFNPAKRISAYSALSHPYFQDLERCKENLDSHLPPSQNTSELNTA

COLO 205 [13] = experiment: Antitumor activity against human COLO205 cells xenografted in nude BALB/c mouse assessed as tumor volume administered once daily for 3 weeks measured twice per week relative to control; type: functional
Mus musculus = experiment: Toxicity in nude BALB/c mouse xenografted with human COLO205 cells assessed as change in body weight at 25 to 100 mg/kg, po administered once daily for 3 weeks; type: organism-based; settings: in vivo, 504 h
[14] = AUC in ICR mouse at 5 mg/kg, po; type: ADME, organism-based; settings: in vivo

| Compound | IC50 (COLO 205 [1]) [nM] | IC50 [2] [nM] | IC50 [3] [nM] | IC50 [12] [nM] | further results |
| --- | --- | --- | --- | --- | --- |
| CCN1CCC(C(C)c2cnc(Nc3cc(-c4cc(F)c5nc(C)n(C(C)C)c5c4)ncn3)cn2)CC1 (centres undefined) | 1510 | 1410 | 18.3 |  |  |
| Cc1nc2c(F)cc(-c3cc(Nc4cnc(CN5CCN(C(C)C)CC5)cn4)ncn3)cc2n1C(C)C | 140 | 97.2 | 1.6 | 2.3 |  |
| CCN1CCC(Oc2cnc(Nc3cc(-c4cc(F)c5nc(C)n(C(C)C)c5c4)ncn3)cn2)CC1 | 460 | 231 | 8.8 | 4 |  |
| CCN1CCN(Cc2ncc(Nc3cc(-c4cc(F)c5nc(C)n(C(C)C)c5c4)ncn3)cn2)CC1 |  |  | 5160 |  |  |
| CCN1CCN(Cc2cnc(Nc3cc(-c4cc(F)c5nc(C)n(C(C)C)c5c4)ccn3)cn2)CC1 | 50 | 35.8 | 2.1 | 1.6 |  |
| Cc1nc2c(F)cc(-c3cc(Nc4cnc(CN5CCN(CC6CC6)CC5)cn4)ncn3)cc2n1C(C)C | 110 | 103 | 2.9 | 2.2 |  |
| CCN1CCN(Cc2ccc(Nc3cc(-c4cc(F)c5nc(C)n(C(C)C)c5c4)ccn3)nn2)CC1 | 340 | 801 | 5.2 | 23.6 |  |
| Cc1nc2c(F)cc(-c3cc(Nc4cnc(CN5CCN(C6CCCC6)CC5)cn4)ncn3)cc2n1C(C)C | 160 | 101 | 2.2 | 1.8 |  |
| CCN1CCN(Cc2ccc(Nc3cc(-c4cc(F)c5nc(C)n(C(C)C)c5c4)c(F)cn3)nn2)CC1 | 630 | 1670 | 12.1 |  |  |
| Cc1nc2c(F)cc(-c3cc(Nc4cnc(CN5CCN(CC(F)(F)F)CC5)cn4)ncn3)cc2n1C(C)C | 530 | 150 | 5.6 | 5.8 |  |
| COCCN1CCN(Cc2cnc(Nc3cc(-c4cc(F)c5nc(C)n(C(C)C)c5c4)ncn3)cn2)CC1 | 140 | 140 | 3.7 | 1.6 |  |
| CCN1CCN(Cc2ccc(Nc3ncc(F)c(-c4cc(F)c5nc(C)n(C(C)C)c5c4)n3)nc2)CC1 [ABEMACICLIB] | 460 |  |  |  | T/C (COLO 205 [10]): 3.95% |

Further compounds by falling IC50 (COLO 205 [1]), results first:

| IC50 (COLO 205 [1]) [nM] | IC50 [2] [nM] | IC50 [3] [nM] | IC50 [12] [nM] | Compound | further results |
| --- | --- | --- | --- | --- | --- |
| 5600 |  | 283 |  | CCN1CCN(Cc2cnc(Nc3ncnc(-c4cc(F)c5nc(C)n(C(C)C)c5c4)c3F)cn2)CC1 |  |
| 3740 | 20200 | 35.9 |  | CCN1CCN(Cc2cnc(Nc3cc(-c4cc(F)c5nc(C)n(C(C)C)c5c4)ncn3)nc2)CC1 |  |
| 520 | 2430 | 13.8 |  | CCN1CCN(Cc2ccc(Nc3cc(-c4cc(F)c5nc(C)n(C(C)C)c5c4)ncn3)nn2)CC1 |  |
| 320 | 134 | 2.4 | 2.9 | CCN1CCC(Cc2cnc(Nc3cc(-c4cc(F)c5nc(C)n(C(C)C)c5c4)ncn3)cn2)CC1 |  |
| 260 | 412 | 3.1 | 4.4 | CCN1CCN(Cc2ccc(Nc3cc(-c4cc(F)c5nc(C)n(C(C)C)c5c4)ncn3)nc2)CC1 |  |
| 210 | 136 | 1.5 | 2.7 | CCN1CCN(Cc2cnc(Nc3cc(-c4cc(F)c5nc(C)n(C(C)C)c5c4)ncn3)cn2)CC1 | clearance [4]: 20.8 to 28.8 mL/min/kg; Cmax [5]: 998 ng/mL; AUC [6]: 571 ng·h/mL; Vd [7]: 0.57 L/kg; bioavailability [8]: 89.3%; T/C (COLO 205 [9]): 54.21%; T/C (COLO 205 [10]): 12.37%; half-life [11]: 1.6 h; Activity (COLO 205 [13]): Dose-dependent effect; Activity (Mus musculus): Non-Toxic; AUC [14]: 2550 ng·h/mL |
| 140 | 301 | 2.9 | 2.9 | CCN1CCN(Cc2ccc(Nc3cc(-c4cc(F)c5nc(C)n(C(C)C)c5c4)ccn3)nc2)CC1 |  |
| 40 | 44 | 1.6 | 1.6 | CCN1CCN(Cc2cnc(Nc3cc(-c4cc(F)c5nc(C)n(C(C)C)c5c4)c(F)cn3)cn2)CC1 | clearance [4]: 37.6 mL/min/kg; Cmax [5]: 514 ng/mL; AUC [6]: 425 ng·h/mL; Vd [7]: 6.44 L/kg |
